Laboratory results taken from US5766848A (Synaptic Pharmaceutical Corporation, priority 1994, dated 1998).

Columns and labels:
[1] = literature reports; cited from earlier work
[2] = human volunteers (CI-966); clinical reports (Tiagabine); cited from earlier work
[3] = target: T1, human GAT-3 (Homo sapiens, UniProt P48066); assay: Inhibition of [3H]GABA uptake, human GAT-3 stable LM(tk-) cell line; type: cell-based; conditions: read-out: IC50, human GAT-3, inhibition of [3H]GABA uptake, Table 9, means ± S.E.M.
T1 construct: expressed in transfected cells
T1 sequence (P48066 1-632): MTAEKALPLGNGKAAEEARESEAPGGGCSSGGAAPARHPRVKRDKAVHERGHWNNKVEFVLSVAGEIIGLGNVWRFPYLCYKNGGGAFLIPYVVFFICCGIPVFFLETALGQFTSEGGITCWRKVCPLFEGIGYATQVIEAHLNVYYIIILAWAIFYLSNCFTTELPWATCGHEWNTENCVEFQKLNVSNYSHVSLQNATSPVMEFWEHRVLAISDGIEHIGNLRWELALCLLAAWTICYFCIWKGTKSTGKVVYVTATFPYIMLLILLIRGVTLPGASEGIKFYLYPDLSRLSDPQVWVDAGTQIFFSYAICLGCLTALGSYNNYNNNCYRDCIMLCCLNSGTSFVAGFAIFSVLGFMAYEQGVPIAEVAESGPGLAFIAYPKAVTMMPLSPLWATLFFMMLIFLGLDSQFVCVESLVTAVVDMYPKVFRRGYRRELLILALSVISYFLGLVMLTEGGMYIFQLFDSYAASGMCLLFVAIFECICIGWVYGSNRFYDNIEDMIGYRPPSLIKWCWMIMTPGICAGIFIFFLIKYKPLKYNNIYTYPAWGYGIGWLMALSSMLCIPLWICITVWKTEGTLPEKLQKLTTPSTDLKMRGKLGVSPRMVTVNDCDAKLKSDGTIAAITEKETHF
Description: (§1) Cells were grown under standard conditions (37° C., 5% CO2) in DMEM (Dulbecco's modified Eagles's medium; GIBCO, Grand Island, N.Y.).
(§2) Cells grown in 24-well plates were washed 3× with HEPES-buffered saline (HBS, in mM: NaCl, 150; HEPES, 20; CaCl2, 1; glucose, 10; KCl, 5; MgCl2 1; pH 7.4) and allowed to equilibrate on a 37° C. slide warmer. After 10 minutes the medium was removed and unlabeled drugs in HBS were added (450 μl/well). […] Plates were incubated at 37° C. for 10 minutes, then washed rapidly 3× with ice-cold HBS, using a 24-position plate washer (Brandel, Gaithersburg, Mass.; model PW-12). Cells were solubilized with 0.05% sodium deoxycholate/0.1N NaOH (0.25 ml/well), an aliquot neutralized with 1N HCl, and radioactivity was determined by scintillation counting. Protein was quantified in an aliquot of the solubilized cells using a BIO-RAD protein assay kit, according to the manufacturer's directions.
(§3) Competition curves were conducted in duplicate, using 10 concentrations of unlabeled drug. […] All data throughout the paper represent means±S.E.M.

[4] = target: human GAT-1 (Homo sapiens, UniProt P30531); conditions: read-out: IC50, human GAT-1, inhibition of [3H]GABA uptake
Description: as §1, §2, §3

[5] = target: T2, human BGT-1 (Homo sapiens, UniProt P48065); conditions: read-out: IC50, human BGT-1, inhibition of [3H]GABA uptake; Table 9; stable LM(tk-) cell line; means ± S.E.M.
T2 sequence (P48065 1-614 C10Y): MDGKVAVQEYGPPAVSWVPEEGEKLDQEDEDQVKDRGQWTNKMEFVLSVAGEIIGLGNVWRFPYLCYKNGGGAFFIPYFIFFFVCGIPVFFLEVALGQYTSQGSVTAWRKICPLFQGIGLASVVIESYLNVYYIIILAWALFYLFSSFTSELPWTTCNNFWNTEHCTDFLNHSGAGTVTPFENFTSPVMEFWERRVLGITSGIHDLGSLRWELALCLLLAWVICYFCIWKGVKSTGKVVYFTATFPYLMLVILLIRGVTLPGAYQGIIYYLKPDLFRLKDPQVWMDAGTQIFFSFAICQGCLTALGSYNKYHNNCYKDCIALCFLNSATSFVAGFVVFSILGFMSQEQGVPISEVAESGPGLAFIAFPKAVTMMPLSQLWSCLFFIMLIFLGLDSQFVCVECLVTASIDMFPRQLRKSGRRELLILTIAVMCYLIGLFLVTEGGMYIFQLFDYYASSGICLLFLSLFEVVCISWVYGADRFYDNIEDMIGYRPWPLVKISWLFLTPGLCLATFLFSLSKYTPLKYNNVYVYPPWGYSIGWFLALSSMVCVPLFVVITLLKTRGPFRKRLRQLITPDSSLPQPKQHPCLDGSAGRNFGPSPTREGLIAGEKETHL
Description: Cells were grown under standard conditions (37° C., 5% CO2) in Dulbecco's modified Eagles's medium (GIBCO, Grand Island, N.Y.).
After 10 minutes the medium was removed and unlabeled drugs in HBS were added (450 μl/well). […] Plates were incubated at 37° C. for 10 minutes, then washed rapidly 3× with ice-cold HBS, using a 24-position plate washer (Brandel, Gaithersburg, Mass.; model PW-12). Cells were solubilized with 0.05% sodium deoxycholate/0.1N NaOH (0.25 ml/well), an aliquot neutralized with 1N HCl, and radioactivity was determined by scintillation counting. Protein was quantified in an aliquot of the solubilized cells using a BIO-RAD protein assay kit, according to the manufacturer's directions.
Data Analysis: Competition curves were conducted in duplicate, using 10 concentrations of unlabeled drug. […] All data throughout the paper represent means±SEM.
as §1, §2, §3

human GAT-1, sequence (P30531 whole entry): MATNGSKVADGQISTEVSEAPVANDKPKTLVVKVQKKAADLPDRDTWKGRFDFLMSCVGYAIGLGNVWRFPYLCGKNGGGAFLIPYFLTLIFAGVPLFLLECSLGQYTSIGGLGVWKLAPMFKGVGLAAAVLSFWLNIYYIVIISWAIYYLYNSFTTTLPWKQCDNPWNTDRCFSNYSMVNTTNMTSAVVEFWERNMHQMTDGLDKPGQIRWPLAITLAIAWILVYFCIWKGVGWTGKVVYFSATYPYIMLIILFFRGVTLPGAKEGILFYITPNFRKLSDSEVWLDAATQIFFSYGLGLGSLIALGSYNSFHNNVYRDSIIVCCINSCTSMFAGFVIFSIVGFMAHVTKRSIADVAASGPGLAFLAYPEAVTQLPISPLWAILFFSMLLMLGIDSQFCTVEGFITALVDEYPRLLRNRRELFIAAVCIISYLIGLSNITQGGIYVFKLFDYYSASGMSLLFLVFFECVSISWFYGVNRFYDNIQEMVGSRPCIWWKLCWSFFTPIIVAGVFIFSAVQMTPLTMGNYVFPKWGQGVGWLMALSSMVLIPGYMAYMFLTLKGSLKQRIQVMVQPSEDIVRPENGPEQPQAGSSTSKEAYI

O=C(O)C1=CCCN(CCOC(c2ccc(C(F)(F)F)cc2)c2ccc(C(F)(F)F)cc2)C1 [CI-966, [1-[2-[bis4(trifluoromethyl)phenyl]methoxy]ethyl]-1,2,5,6-tetrahydro-3-pyridinecarboxylic acid]
anticonvulsive activity in animals [1]: display anticonvulsive activity | severe adverse effects in humans [2]: Severe adverse effects were noted | IC50 [3]: 333 ± 76 µM | IC50 [4]: 0.26 ± 0.05 µM | IC50 [5]: 300 ± 10 µM
